Reference: publication PMC5913971, “A Novel Piperazine-Based Drug Lead for Cryptosporidiosis from the Medicines for Malaria Venture Open-Access Malaria Box” (Antimicrobial Agents and Chemotherapy, 2018)

What was measured:
[1] = test system: C. parvum Iowa isolate; assay: NOD SCID gamma (NSG) mouse model of chronic cryptosporidiosis, fecal qPCR; assay type: in vivo, NOD SCID gamma mice; settings: for short-term efficacy on oocyst shedding in NSG mice: Fig. 2B, dose not given
Experimental: All NOD SCID gamma mouse studies were performed in compliance with animal care guidelines and were approved by the University of Vermont Institutional Animal Care and Use Committee. NOD SCID gamma mice with normal flora (NOD.Cg-Prkdc^scid Il2rg^tm1Wjl/SzJ) ([38]) were purchased from The Jackson Laboratory (Bar Harbor, ME, USA) and were housed for at least a week for acclimatization. At the age of 4 to 5 weeks, mice were infected with 10^5 C. parvum Iowa isolate oocysts. Fecal oocyst shedding is detected 6 days after infection using a quantitative PCR (qPCR assay), so treatment was started on day 7 after infection. Mice (4 per experimental group) were treated either orally (p.o.) with MMV665917 at 30 or 60 mg/kg BID, intraperitoneally (i.p.) with MMV665917 at 60 mg/kg BID, or p.o. with 1,000 mg/kg paromomycin BID. MMV665917 was suspended in DMSO, sonicated three times, for 30 s each time, to obtain a fine suspension, aliquoted, and stored at −80°C for <10 days. On the day of treatment, aliquots of MMV665917 diluted in DMSO were thawed, mixed well using a vortexer, diluted with 1% HPMC, sonicated as before (three times for 30 s each time), mixed well, and given to mice either p.o. or by i.p. injection. A final concentration of 5% DMSO was used in 100 μl of 1% HPMC per dose. For the additional Malaria Box compounds and compound variants tested, the doses were prepared in the same way, and the specific dosages tested are given in Table S3 in the supplemental material. Mice were treated for either 4 or 7 days, allowed to recover for a week, and then sacrificed. Oocyst shedding in feces was monitored throughout by qPCR, including time points while on treatment and while monitoring for relapsed infection following completion of treatment in Fig. 2A.

[2] = test system: C. parvum; assay: Parasite persistence (time-kill) assay in HCT-8 cells; assay type: cell-based, Cryptosporidium parvum; settings: for parasite persistence: highest nontoxic concentrations, added 24 h after infection
Experimental: Excysted C. parvum oocysts were added to >90% confluent HCT-8 cells in 384-well plates. […] At ∼24 h (i.e., the time of compound addition) and at various time intervals thereafter, parasites were washed, fixed, permeabilized, stained, and imaged as for the C. parvum growth assay. For the extended-compound-exposure experiments, the medium and compound were replaced every 3 days. A separate 384-well plate was used for each time interval. Parasite numbers were normalized to host cell nucleus numbers and are expressed as the percentage of parasites per host cell nucleus. In order to fit parasite decay curves, the effect of drugs was isolated from expected changes in parasite numbers over time by expressing the number of parasites as the percentage of the number of parasites with the control, dimethyl sulfoxide (DMSO), for each time point. Exponential decay curves were fit using GraphPad Prism software, version 6.01, and curve validity was assessed using the replicates test.

[3] = test system: C. parvum Iowa isolate; assay: IFN-γ knockout mouse model of acute cryptosporidiosis; assay type: in vivo, C57BL/6 IFN-γ−/− mice; settings: dose not given
Experimental: All interferon gamma (IFN-γ) knockout mouse studies were performed in compliance with animal care guidelines and were approved by the Explora BioLabs (San Diego, CA) Institutional Animal Care and Use Committee. Four-week-old female C57BL/6 IFN-γ^−/− mice with normal flora were purchased from The Jackson Laboratory and were acclimated for 3 days prior to infection by oral gavage with 10^6 C. parvum Iowa isolate oocysts (Sterling Parasitology Laboratory, University of Arizona) suspended in sterile distilled water. At various times postinfection, mice were treated with the compound vehicle alone, clofazimine (used as a positive control), or MMV665917. As described previously, fecal parasite shedding was quantified at various times postinfection by isolating oocysts using a sucrose gradient centrifugation method ([39]), followed by staining for immunofluorescence microscopy using a fluorescein isothiocyanate-conjugated mouse anti-Cryptosporidium antibody (0.25 μg per sample) and analysis with a Guava easyCyte flow cytometer and CytoSoft data acquisition and analysis software (version 5.3; Guava Technologies, Inc.). Oocyst counts per milliliter of sample were exported to Excel (Microsoft Corp.) and were normalized to counts per milligram of feces. Final data analysis and graphing were carried out using GraphPad Prism software (version 6.01).

SMILES | short-term efficacy on oocyst shedding in NSG mice [1] | parasiticidal or parasitistatic for C. parvum [2] | parasite persistence [2] | efficacy in IFN-γ KO mouse model of acute infection [3] | relapse after cessation of treatment ([1]; paromomycin 1,000 mg/kg p.o. BID, 7 days) | percentage of host cells infected, extended treatment ([2]; day 13 of treatment, 12 × EC90, medium and drug replaced every 3 days)
CC(C)/N=c1\cc2n(-c3ccc(Cl)cc3)c3ccccc3nc-2cc1Nc1ccc(Cl)cc1 [clofazimine] | completely lacked efficacy | parasitistatic | parasites persist | confirmed |  | 
NC[C@@H]1O[C@H](O[C@H]2[C@@H](O)[C@H](O[C@@H]3[C@@H](O)[C@H](N)C[C@H](N)[C@H]3O[C@H]3O[C@H](CO)[C@@H](O)[C@H](O)[C@H]3N)O[C@@H]2CO)[C@H](N)[C@@H](O)[C@@H]1O [paromomycin] | ineffective | parasitistatic | parasites persist | good efficacy | relapsed promptly | closely mirrored the pattern for the vehicle control
